The results in this text go back to patent US20260070917A1, “CYCLIN DEPENDENT KINASE DEGRADERS AND METHODS OF USE THEREOF” (Differentiated Therapeutics Inc, priority 2023, published 2026).

What all share (assay type): cell-based
In one experiment the target is T1, CDK9 (Homo sapiens, UniProt P50750).
T1 construct: host or cells: HEK293-CDK9-Hibit
The experiment in a line: HiBit Assay Protocol for CDK9 (HIBIT protein quantification, degradation). Particulars: HEK293-CDK9-Hibit cells, compound treatment for 6 hours; for Dmax: read-out: CDK9 HIBIT Protein Quantification Maximum; for DC50: ABS DC50. In outline:
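HEK293 cells carrying HiBiT-tagged CDK9 treated 6 h with compounds in a 3-fold, 10-point dilution series. CDK9 level read by lytic Nano-Glo HiBiT/LgBiT luminescence and normalized to 0.1% DMSO (high) and medium-only (low) controls. DC50 from curve fitting.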
(With HiBiT, luminescence reflects the tagged protein that the partner subunit can reach.)

A further experiment has as its target T2, CDK2 (Homo sapiens, UniProt P24941).
T2 construct: host or cells: HEK293-CDK2-Hibit
Put plainly: HiBit Assay Protocol for CDK2 (HIBIT protein quantification, degradation). Particulars: HEK293-CDK2-Hibit cells, compound treatment for 6 hours; for DC50: ABS DC50. The method, boiled down: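 HEK293 cells expressing HiBiT-tagged CDK2 were seeded overnight, then treated 6 h with a 3-fold, 10-point compound dilution series. CDK2 levels were read as luminescence after lytic HiBiT/LgBiT detection, normalised to DMSO-only and medium-only controls, and DC50 derived by curve fitting.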

Experiment [1] addresses T3, CCNE1 (Homo sapiens, UniProt P24864+P24941).
T3 construct: host or cells: HEK293-CCNE1-Hibit
Put plainly: HiBit Assay Protocol for CCNE1 (HIBIT protein quantification, degradation). Particulars: HEK293-CCNE1-Hibit cells, compound treatment for 6 hours, ABS DC50. The method, boiled down: (§1)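 HEK293 cells expressing HiBiT-tagged CCNE1 were seeded overnight, then treated 6 h with a 3-fold, 10-point compound dilution series. HiBiT levels were read by lytic LgBiT luminescence and normalised to DMSO-only (high) and medium-only (low) controls. DC50 was derived by curve fitting.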

Experiment [2] addresses T4, CCNE1 (Homo sapiens, UniProt P24864).
T4 construct: host or cells: HEK293-CCNE1-Hibit
The experiment is described as above. Particulars: HEK293-CCNE1-Hibit cells, compound treatment for 6 hours. The method, boiled down:
as §1

Molecules are shown by their SMILES. Read-outs that look alike come from different tables or passages of the source.

T1 sequence (P50750 whole entry): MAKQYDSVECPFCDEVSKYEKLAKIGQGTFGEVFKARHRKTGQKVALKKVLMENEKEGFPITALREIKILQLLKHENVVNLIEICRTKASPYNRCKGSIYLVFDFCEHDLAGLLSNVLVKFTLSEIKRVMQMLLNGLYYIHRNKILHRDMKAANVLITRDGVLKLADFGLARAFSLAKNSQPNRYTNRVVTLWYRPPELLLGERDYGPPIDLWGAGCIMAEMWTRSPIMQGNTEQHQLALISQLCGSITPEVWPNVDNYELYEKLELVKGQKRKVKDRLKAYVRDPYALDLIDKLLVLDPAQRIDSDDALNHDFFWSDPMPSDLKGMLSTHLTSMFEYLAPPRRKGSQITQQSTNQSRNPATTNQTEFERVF
T3 sequence (P24864 whole entry, one chain of several): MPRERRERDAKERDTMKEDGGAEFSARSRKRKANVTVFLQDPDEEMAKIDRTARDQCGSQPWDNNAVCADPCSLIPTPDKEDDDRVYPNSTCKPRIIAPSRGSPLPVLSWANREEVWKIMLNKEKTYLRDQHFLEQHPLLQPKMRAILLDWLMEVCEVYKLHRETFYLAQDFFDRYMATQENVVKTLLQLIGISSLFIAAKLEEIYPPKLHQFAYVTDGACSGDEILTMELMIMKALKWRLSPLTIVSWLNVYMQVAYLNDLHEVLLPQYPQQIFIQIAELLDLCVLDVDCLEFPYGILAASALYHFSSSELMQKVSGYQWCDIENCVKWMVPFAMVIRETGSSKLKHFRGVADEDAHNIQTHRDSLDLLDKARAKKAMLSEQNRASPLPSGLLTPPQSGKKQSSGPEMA
T4 sequence (P24864 whole entry): as the sequence (P24864 whole entry, one chain of several) above

What is called DC50 is the concentration at which degradation of the target reaches its halfway point. Lower therefore signals degradation at low concentration. As to `C[C@H](c1cccc(S(=O)(=O)N2CCC(Nc3ncc4c(n3)N([C@@H]3CCC[C@@H](O)C3)C(=O)C43CC3)CC2)c1)N1CCC(c2ccc3c(N4CCC(=O)NC4=O)nn(C)c3c2)CC1` [Compound 151, 1-(6-{1-[(1R)-1-[3-(4-{7′-[(1R,3R)-3-hydroxycyclohexyl]-6′-oxospiro[cyclopropane-1,5′-pyrrolo[2,3-d]pyrimidin]-2′-ylamino}piperidin-1-ylsulfonyl)phenyl]ethyl]piperidin-4-yl}-1-methylindazol-3-yl)-1,3-diazinane-2,4-dione], at CDK9 (6 h), the Dmax was 3%. Moreover, on CDK2, the “CDK2 HIBIT Protein Quantification Maximum” value is on record as 80% and half-maximal degradation (DC50) was put at 3.31 nM. In addition, at CCNE1 [1], the DC50 came to 78.5 nM. Also, on CCNE1 [2], the “CCNE1 HIBIT Protein Quantification Maximum” value stood at 69%.
Take `CC1CCCC1N1C(=O)C2(CC2)c2cnc(NC3CCN(S(=O)(=O)N4CCC5(CCCN5C(=O)CCCCCc5cccc6c5n(C)c(=O)n6C5CCC(=O)NC5=O)C4)CC3)nc21` (centres unmarked) [Compound 36]: the Dmax at CDK9 (6 h) is 49%. Moreover, at CDK2, the “CDK2 HIBIT Protein Quantification Maximum” value worked out at 46%. Besides, it took 515 nM to reach half-maximal degradation at CCNE1 [1] (DC50). On CCNE1 [2], the “CCNE1 HIBIT Protein Quantification Maximum” value is given as 59%.
In the case of `Cc1c(CN2CCC(c3ccc4c(N5CCC(=O)NC5=O)nn(C)c4c3)CC2)cccc1S(=O)(=O)N1CCC(Nc2ncc3c(n2)N([C@@H]2CCC[C@@H](O)C2)C(=O)C32CC2)CC1` [Compound 159, 1-[6-(1-{[3-(4-{7′-[(1R,3R)-3-Hydroxycyclohexyl]-6′-oxospiro [cyclopropane-1,5′-pyrrolo[2,3-d]pyrimidin]-2′-ylamino}piperidin-1-ylsulfonyl)-2-methylphenyl]methyl}piperidin-4-yl)-1-methylindazol-3-yl]-1,3-diazinane-2,4-dione], the Dmax at CDK9 (6 h) was found to be 49%. For the same compound, on CDK2, the “CDK2 HIBIT Protein Quantification Maximum” value worked out at 68% and it took 2.83 nM to reach half-maximal degradation (DC50). For the same compound, the DC50 at CCNE1 [1] came to 5.99 nM. Besides, the “CCNE1 HIBIT Protein Quantification Maximum” value on CCNE1 [2] came to 54%.
For `O=C1CCC(N2Cc3cc(N4CCN(CC5CCN(c6cccc(S(=O)(=O)c7ccc(Nc8ncc9c(n8)N([C@@H]8CCC[C@@H](O)C8)C(=O)C98CC8)cc7)c6)CC5)CC4)ccc3C2=O)C(=O)N1` (stereo partly drawn) [Compound 126, 3-{5-[4-({1-[3-(4-{7′-[(1R,3R)-3-hydroxycyclohexyl]-6′-oxospiro [cyclopropane-1,5′-pyrrolo[2,3-d]pyrimidin]-2′-ylamino}benzenesulfonyl)phenyl]piperidin-4-yl}methyl)piperazin-1-yl]-1-oxo-3H-isoindol-2-yl}piperidine-2,6-dione], at CDK9, half-maximal degradation (DC50) was put at 33.4 nM and the Dmax turned out to be 84%. At CDK2, the “CDK2 HIBIT Protein Quantification Maximum” value was determined as 66% and the 50% degradation concentration (DC50) is 6 nM. At CCNE1 [1], this compound came in with a DC50 of 29.6 nM. For the same compound, the “CCNE1 HIBIT Protein Quantification Maximum” value on CCNE1 [2] is 71%.
As to `CN(CCCN1CCC(c2cccc3c2n(C)c(=O)n3C2CCC(=O)NC2=O)CC1)S(=O)(=O)c1ccc(Nc2ncc3c(n2)N([C@@H]2CCC[C@@H](O)C2)C(=O)C32CC2)cc1` (stereo partly drawn) [Compound 116, N-(3-(4-(1-(2,6-dioxopiperidin-3-yl)-3-methyl-2-oxo-2,3-dihydro-1H-benzo[d]imidazol-4-yl)piperidin-1-yl)propyl)-4-((7′-((1R,3R)-3-hydroxycyclohexyl)-6′-oxo-6′,7′-dihydrospiro[cyclopropane-1,5′-pyrrolo[2,3-d]pyrimidin]-2′-yl)amino)-N-methylbenzenesulfonamide], the Dmax at CDK9 (6 h) came to 81%. Moreover, the DC50 came out at 74.9 nM at CDK9, 14 nM at CDK2 and 23.2 nM on CCNE1 [1]. At CDK2, the “CDK2 HIBIT Protein Quantification Maximum” value is listed as 86%. Further, the “CCNE1 HIBIT Protein Quantification Maximum” value at CCNE1 [2] is 75%.
